From US20060258644A1, “Pyrrolobenzodiazepines and heteroaryl, aryl and cycloalkylamino ketone derivatives as follicle stimulating hormone receptor (FSH-R) antagonists” (Wyeth, priority 2005, published 2006)

Tests used:
[1] = target: T1, hFSH-R (Homo sapiens, UniProt P23945); assay: cAMP accumulation bio-assay in CHO-3D2 cells (hFSH-R), RIA; assay type: cell-based
T1 construct: expressed in transfected cells; host or cells: CHO-3D2 cells
T1 sequence (P23945 18-695): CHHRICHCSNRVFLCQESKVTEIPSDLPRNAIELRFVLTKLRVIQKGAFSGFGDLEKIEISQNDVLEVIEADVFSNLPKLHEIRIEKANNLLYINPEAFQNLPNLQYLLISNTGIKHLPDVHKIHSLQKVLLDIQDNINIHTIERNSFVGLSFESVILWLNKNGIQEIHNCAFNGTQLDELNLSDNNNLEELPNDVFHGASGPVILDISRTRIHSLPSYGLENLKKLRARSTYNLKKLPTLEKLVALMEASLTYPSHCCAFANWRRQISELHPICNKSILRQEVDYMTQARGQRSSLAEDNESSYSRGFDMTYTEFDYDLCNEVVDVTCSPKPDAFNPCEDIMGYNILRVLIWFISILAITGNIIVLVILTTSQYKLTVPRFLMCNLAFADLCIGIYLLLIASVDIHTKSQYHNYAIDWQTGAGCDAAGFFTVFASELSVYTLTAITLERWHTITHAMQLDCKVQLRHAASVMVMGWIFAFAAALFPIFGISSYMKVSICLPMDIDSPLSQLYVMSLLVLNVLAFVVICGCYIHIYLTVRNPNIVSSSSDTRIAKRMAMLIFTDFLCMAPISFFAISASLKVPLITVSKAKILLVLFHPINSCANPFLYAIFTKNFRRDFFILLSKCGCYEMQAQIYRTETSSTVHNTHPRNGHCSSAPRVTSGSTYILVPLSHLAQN
Procedure: The compounds were subsequently diluted in sterile assay medium consisting of Opti-MEM® I (Life Technologies) with 0.1% (w/v) BSA (Sigma), prior to use in the bio-assay. The final concentration of DMSO in the assay is 0.1%.
Plated cells are then incubated at 37° C. in a humidified 5% CO2/95% air, atmosphere.
On the day of the assay, cells were washed three times with 100 μl/well of assay medium consisting of Opti-MEM® I (Life Technologies) with 0.1% (w/v) BSA (Sigma). Medium was removed and 100 μl of assay medium was added to each well. Plates were incubated for an additional 30 minutes at 37° C. […] Reactions were terminated by the addition of 50 μl of 0.2N hydrochloric acid to each well and cAMP-accumulation was measured by radioimmunoassay (RIA) using a commercially available kit (Amersham).
All test compounds were evaluated in a dose-response paradigm ranging from 0.01 to 30 μM. Controls and test compounds were evaluated in quadruplicate in a 96-well format.
Data were analyzed by one-way analysis of variance and significant differences between treatments and control determined by Least Significant Difference test.
Test compounds were compared to the effect of purified human FSH.

[2] = target: T2, human FSH receptor (Homo sapiens, UniProt P23945); assay: FSH receptor-dependent CRE-luciferase reporter gene assay (CHO FSH-R 6CRE-Luc cells); assay type: cell-based; details: dose-response in presence of EC50 of purified human FSH; read-out: CRE IC50
T2 construct: host or cells: CHO-K1 (CHO FSH-R 6CRE-Luc, 1D7 cells)
T2 sequence (P23945 18-695): T1 sequence (P23945 18-695)
Text: Follicle-Stimulating Hormone Receptor-Dependent CRE-Luciferase Reporter Gene Assay for the Identification of Follicle-Stimulating Hormone (FSH) Antagonists
This procedure was used to identify and determine the relative potencies of human FSH receptor antagonists using a Chinese hamster ovarian cell line that stably produces the human FSH receptor and a luciferase reporter gene regulated by cAMP response elements.
The compounds were subsequently diluted in DMSO to working dilutions of 1 and 20 or 30 mM for 2-dose testing format and 1 μM-10 mM for dose-response format. The DMSO dilutions were diluted 500-fold in sterile growth medium [D-MEM/F-12 (GIBCO/BRL; Grand Island N.Y.) containing 15 mM HEPES, 2 mM 1-glutamine, pyridoxine hydrochloride, phenol red and 5% FetalClone II (HyClone Laboratories, Inc; Logan, Utah), 0.2% DMSO, 100 units penicillin G/ml, and 100 μg streptomycin sulfate/ml (GIBCO/BRL)]. The concentration of the vehicle in each of the compound dilutions was the same. • Positive Controls: Purified human FSH (>98%) was purchased from Cortex Biochem, Inc. (San Leandro, Calif.) and WAY-162002 (an FSH-R thiazolidinone antagonist) was obtained from the Wyeth Research compound repository. Preparation of Cells
The CHO FSH-R 6CRE-Luc cells (1D7 cells) were obtained from Affymax (Palo Alto, Calif.). These Chinese hamster ovary cells (CHO—K1) were genetically engineered to stably express the recombinant human FSH receptor gene and a luciferase reporter gene under the regulation of 6 copies of a cAMP response element. The cells were plated one day prior to treatment into 96-well white opaque plates at a density of 50,000 cells/100 μl/well in growth medium. On the day of treatment, the growth medium was removed from the wells by aspiration and 50 μl of fresh growth medium was added to each well. The cells were incubated at 37° C. in a humidified incubator with 5% CO2/95% air.
The treated cells were incubated for 4 hours at 37° C. in a humidified incubator with 5% CO2/95% air. At the end of-the incubation period, luciferase activity was measured by chemiluminescence using a commercially available kit (LucScreen, Tropix, Inc., Bedford, Mass.) according to the manufacturer's specifications, except that Buffer 1 and Buffer 2 were mixed together in equal proportion prior to the addition of 100 μl of the combined reagents to each well. Chemiluminescence was detected using a luminometer (EG & G Berthold Microlumat LB 96 P, Wallac, Gaithersburg, Md.) with chemiluminescence measured for 1 sec/well. Background luminescence was measured for each well prior to the addition of the LucScreen reagent.
In the 96-well 2-dose format, each compound was tested in duplicate at each dose. […] One plate was used to test a maximum of 22 compounds.
The EC50 of purified human FSH alone was tested in triplicate with each test compound. The doses chosen to test each compound were extrapolated from the initial 2-dose screening process. Along with the test compounds, purified human FSH was also tested in a dose response (0.03, 0.1, 0.3, 1, 3, 10, and 30 ng/ml) for a positive control and quality control. One plate was used for 3 test compounds and the FSH positive control.
Luciferase activity is expressed as relative light units/sec/well. Luciferase activity in antagonist was compared to the appropriate negative and positive controls. For 2-dose testing, results are reported as luciferase activity and are expressed as % inhibition of the response obtained from the EC50 of FSH. For dose-response testing, results are reported as IC50 values. Data were analyzed statistically by one-way analysis of variance with appropriate weighting and transformation and relevant paired test as determined by Biometrics (Wyeth Research, Princeton, N.J.). IC50 values were calculated using the Stat/Excel program developed by Biometrics with appropriate weighting and transformation.

- IC50 [1]: 2 µM
- Emax ([1]; read-out: cAMP % efficacy): 78%
- IC50 [2]: 6.82 µM
SMILES: COc1ccccc1-c1ccc(C(=O)N2Cc3ccc(C(=O)CCc4cccnc4)n3Cc3ccccc32)cc1 [Example 3, 1-{10-[(2′-Methoxy-1,1′-biphenyl-4-yl)carbonyl]-10,11-dihydro-5H-pyrrolo[2,1-c][1,4]benzodiazepin-3-yl}-3-pyridin-3-ylpropan-1-one]
